Data: the NIST ThermoML archive (doi:10.1007/s10765-014-1598-0)

Legend:
[1] = wn = mass fraction of the nth substance listed; settings: Liquid, Parallel plate method
[2] = Liquid, Parallel plate method

O [water] + O=P(O)(O)O
[1], w2 = 0
Settings	thermal conductivity [W/m/K]
292.04 K, 101 kPa	0.596
292.37 K, 5000 kPa	0.599
292.41 K, 15000 kPa	0.606
301.85 K, 101 kPa	0.612
308.34 K, 101 kPa	0.622
313.16 K, 5000 kPa	0.634
313.35 K, 15000 kPa	0.636
318.33 K, 101 kPa	0.634
327.48 K, 101 kPa	0.645
332.62 K, 15000 kPa	0.657
332.85 K, 5000 kPa	0.656
337.32 K, 101 kPa	0.655
346.93 K, 101 kPa	0.662
351.91 K, 5000 kPa	0.671
353.17 K, 15000 kPa	0.673
356.69 K, 101 kPa	0.668
364.08 K, 5000 kPa	0.679
364.53 K, 15000 kPa	0.682
371.79 K, 101 kPa	0.677
382.36 K, 15000 kPa	0.688
382.41 K, 5000 kPa	0.686
398.77 K, 5000 kPa	0.688
399.64 K, 15000 kPa	0.691

O=P(O)(O)O [phosphoric acid] + O
[1]
Settings	thermal conductivity [W/m/K]
291.42 K, 5000 kPa, w1 = 0.08	0.568
291.7 K, 15000 kPa, w1 = 0.08	0.578
292.71 K, 101 kPa, w1 = 0.5	0.482
293.15 K, 15000 kPa, w1 = 0.5	0.498
293.16 K, 101 kPa, w1 = 0.08	0.566
293.26 K, 5000 kPa, w1 = 0.5	0.489
294.15 K, 5000 kPa, w1 = 0.155	0.545
294.23 K, 15000 kPa, w1 = 0.155	0.556
294.32 K, 101 kPa, w1 = 0.155	0.529
298.48 K, 101 kPa, w1 = 0.08	0.575
300.86 K, 101 kPa, w1 = 0.5	0.493
303.03 K, 101 kPa, w1 = 0.155	0.545
310.72 K, 5000 kPa, w1 = 0.155	0.568
310.89 K, 15000 kPa, w1 = 0.155	0.58
312.81 K, 15000 kPa, w1 = 0.5	0.525
313.19 K, 5000 kPa, w1 = 0.5	0.516
313.91 K, 101 kPa, w1 = 0.08	0.597
313.94 K, 101 kPa, w1 = 0.155	0.561
314.07 K, 101 kPa, w1 = 0.155	0.563
315.13 K, 101 kPa, w1 = 0.5	0.514
315.16 K, 5000 kPa, w1 = 0.08	0.609
315.18 K, 15000 kPa, w1 = 0.08	0.613
320.54 K, 101 kPa, w1 = 0.08	0.607
321.54 K, 101 kPa, w1 = 0.155	0.571
329.59 K, 101 kPa, w1 = 0.5	0.53
330.24 K, 15000 kPa, w1 = 0.5	0.545
330.25 K, 101 kPa, w1 = 0.155	0.582
330.43 K, 5000 kPa, w1 = 0.5	0.54
332.5 K, 15000 kPa, w1 = 0.155	0.605
332.65 K, 5000 kPa, w1 = 0.155	0.592
334.07 K, 5000 kPa, w1 = 0.08	0.633
334.29 K, 15000 kPa, w1 = 0.08	0.641
339.46 K, 101 kPa, w1 = 0.5	0.538
342.35 K, 101 kPa, w1 = 0.155	0.598
342.83 K, 101 kPa, w1 = 0.08	0.63
343.21 K, 101 kPa, w1 = 0.155	0.599
345.9 K, 101 kPa, w1 = 0.08	0.634
350.37 K, 15000 kPa, w1 = 0.08	0.654
350.49 K, 5000 kPa, w1 = 0.08	0.646
352.63 K, 15000 kPa, w1 = 0.5	0.566
352.82 K, 5000 kPa, w1 = 0.5	0.569
352.88 K, 101 kPa, w1 = 0.155	0.607
353.04 K, 5000 kPa, w1 = 0.155	0.615
353.17 K, 15000 kPa, w1 = 0.155	0.622
354.94 K, 101 kPa, w1 = 0.5	0.55
355.76 K, 101 kPa, w1 = 0.08	0.642
360.16 K, 101 kPa, w1 = 0.155	0.613
360.21 K, 101 kPa, w1 = 0.155	0.614
363.17 K, 5000 kPa, w1 = 0.5	0.564
363.2 K, 15000 kPa, w1 = 0.5	0.572
364.06 K, 15000 kPa, w1 = 0.155	0.632
364.17 K, 5000 kPa, w1 = 0.155	0.626
364.98 K, 15000 kPa, w1 = 0.08	0.666
365.14 K, 5000 kPa, w1 = 0.08	0.667
369.33 K, 101 kPa, w1 = 0.08	0.65
370.07 K, 101 kPa, w1 = 0.155	0.618
372.13 K, 101 kPa, w1 = 0.5	0.56
380.77 K, 15000 kPa, w1 = 0.08	0.673
380.93 K, 5000 kPa, w1 = 0.08	0.669
383.41 K, 15000 kPa, w1 = 0.5	0.58
383.52 K, 5000 kPa, w1 = 0.5	0.575
385.14 K, 15000 kPa, w1 = 0.155	0.64
385.31 K, 5000 kPa, w1 = 0.155	0.636
397.89 K, 5000 kPa, w1 = 0.155	0.635
399.66 K, 15000 kPa, w1 = 0.5	0.583
399.84 K, 15000 kPa, w1 = 0.08	0.677
400.05 K, 5000 kPa, w1 = 0.08	0.672
400.07 K, 15000 kPa, w1 = 0.155	0.642
400.18 K, 5000 kPa, w1 = 0.5	0.58

O [water]
[2]
Settings	thermal conductivity [W/m/K]
292.04 K, 101 kPa	0.596
292.37 K, 5000 kPa	0.599
292.41 K, 15000 kPa	0.606
301.85 K, 101 kPa	0.612
308.34 K, 101 kPa	0.622
313.16 K, 5000 kPa	0.634
313.35 K, 15000 kPa	0.636
318.33 K, 101 kPa	0.634
327.48 K, 101 kPa	0.645
332.62 K, 15000 kPa	0.657
332.85 K, 5000 kPa	0.656
337.32 K, 101 kPa	0.655
346.93 K, 101 kPa	0.662
351.91 K, 5000 kPa	0.671
353.17 K, 15000 kPa	0.673
356.69 K, 101 kPa	0.668
364.08 K, 5000 kPa	0.679
364.53 K, 15000 kPa	0.682
371.79 K, 101 kPa	0.677
382.36 K, 15000 kPa	0.688
382.41 K, 5000 kPa	0.686
398.77 K, 5000 kPa	0.688
399.64 K, 15000 kPa	0.691
